# Experimental data: article PMC12621367, “Salvianolic acid C inhibits methane emissions in dairy cows by targeting MCR and reshaping the rumen microbial community” (Journal of Animal Science and Biotechnology, 2025)
# pIC50: −log10 of the molar value.
# Molecular target: T1, Methyl-coenzyme M reductase (MCR)
# T1 construct: gene mcrA; with McrB and McrG (β and γ subunits)
# Assay: MCR activity inhibition with a microbial MCR ELISA kit, dose-response, OD […] nm
# Type: biochemical, Methanothermobacter marburgensis
smiles,measurement,value
"O=C(/C=C/c1ccc(O)c2oc(-c3ccc(O)c(O)c3)cc12)O[C@H](Cc1ccc(O)c(O)c1)C(=O)O [SAC, Salvianolic acid C]",pIC50,3.16
